Assays:
Assay in all cases: Test F pre/postemergence
Type in all cases: in vivo
[1] = test system: goosegrass (Eleusine indica)
Source text: (§1) Seeds or nutlets of plant species selected from (turf) bermudagrass (Cynodon dactylon), Kentucky bluegrass (Poa pratensis), bentgrass (Agrostis palustris), hard fescue (Festuca ovina), large crabgrass (Digitaria sanguinalis), goosegrass (Eleusine indica), dallisgrass (Paspalum dilatatum), annual bluegrass (Poa annua), common chickweed (Stellaria media), dandelion (Taraxacum officinale), white clover (Trifolium repens), and yellow nutsedge (Cyperus esculentus) were planted and treated preemergence with the test chemical formulated in a non-phytotoxic solvent mixture which included a surfactant.
(§2) At the same time, plants selected from these crop and weed species were treated with postemergence applications of the test chemical formulated in the same manner. Plants ranged in height from 2 to 18 cm (1- to 4-leaf stage) for postemergence treatments. Treated plants and controls were maintained in a greenhouse for 12 to 14 days, after which time all species were compared to controls and visually evaluated. Plant response ratings, summarized in Table F, are based on a scale of 0 to 100 where 0 is no effect and 100 is complete control. A dash (-) response means no test result.

[2] = test system: white clover (Trifolium repens)
Source text: as §1, §2

[3] = test system: dandelion (Taraxacum officinale)
Source text: as §1, §2

[4] = test system: yellow nutsedge (Cyperus esculentus)
Source text: as §1, §2

[5] = test system: dallisgrass (Paspalum dilatatum)
Source text: as §1, §2

[6] = test system: Kentucky bluegrass (Poa pratensis)
Source text: as §1, §2

[7] = test system: annual bluegrass (Poa annua)
Source text: as §1, §2

[8] = test system: (turf) bermudagrass (Cynodon dactylon)
Source text: as §1, §2

[9] = test system: common chickweed (Stellaria media)
Source text: as §1, §2

Question: `CCOC(=O)c1nc(C2CC2)nc(N)c1Br` [Compound 1, ethyl 6-amino-5-bromo-2-cyclopropyl-4-pyrimidinecarboxylate] was tested. Which “Plant response rating (0 to 100 scale)” value ([1]; Postemergence, 31 g ai/ha) did it give?
Answer: 5

Question: What about the “Plant response rating (0 to 100 scale)” value ([1]; Postemergence, 62 g ai/ha) of the same molecule?
Answer: 10

Question: And the “Plant response rating (0 to 100 scale)” value ([1]; Postemergence, 125 g ai/ha)?
Answer: 35

Question: What about the “Plant response rating (0 to 100 scale)” value ([1]; Postemergence, 250 g ai/ha) of the same molecule?
Answer: 40

Question: What about the “Plant response rating (0 to 100 scale)” value ([1]; Postemergence, 500 g ai/ha) of the same molecule?
Answer: 50

Question: What about the “Plant response rating (0 to 100 scale)” value ([1]; Preemergence, 31 g ai/ha) of the same molecule?
Answer: 30

Question: And the “Plant response rating (0 to 100 scale)” value ([1]; Preemergence, 62 g ai/ha)?
Answer: 40

Question: And the “Plant response rating (0 to 100 scale)” value ([1]; Preemergence, 125 g ai/ha)?
Answer: 30

Question: And the “Plant response rating (0 to 100 scale)” value ([1]; Preemergence, 250 g ai/ha)?
Answer: 65

Question: What about the “Plant response rating (0 to 100 scale)” value ([1]; Preemergence, 500 g ai/ha) of the same molecule?
Answer: 85

Question: What about the “Plant response rating (0 to 100 scale)” value ([2]; Postemergence, 31 g ai/ha) of the same molecule?
Answer: 70

Question: What about the “Plant response rating (0 to 100 scale)” value ([2]; Postemergence, 62 g ai/ha) of the same molecule?
Answer: 90

Question: And the “Plant response rating (0 to 100 scale)” value ([2]; Postemergence, 125 g ai/ha)?
Answer: 100

Question: And the “Plant response rating (0 to 100 scale)” value ([2]; Postemergence, 250 g ai/ha)?
Answer: 100

Question: And the “Plant response rating (0 to 100 scale)” value ([2]; Postemergence, 500 g ai/ha)?
Answer: 100

Question: What about the “Plant response rating (0 to 100 scale)” value ([2]; Preemergence, 31 g ai/ha) of the same molecule?
Answer: 80

Question: What about the “Plant response rating (0 to 100 scale)” value ([2]; Preemergence, 62 g ai/ha) of the same molecule?
Answer: 100

Question: And the “Plant response rating (0 to 100 scale)” value ([2]; Preemergence, 125 g ai/ha)?
Answer: 100

Question: What about the “Plant response rating (0 to 100 scale)” value ([2]; Preemergence, 250 g ai/ha) of the same molecule?
Answer: 100

Question: And the “Plant response rating (0 to 100 scale)” value ([2]; Preemergence, 500 g ai/ha)?
Answer: 100

Question: What about the “Plant response rating (0 to 100 scale)” value ([3]; Postemergence, 31 g ai/ha) of the same molecule?
Answer: 50

Question: And the “Plant response rating (0 to 100 scale)” value ([3]; Postemergence, 62 g ai/ha)?
Answer: 75

Question: And the “Plant response rating (0 to 100 scale)” value ([3]; Postemergence, 125 g ai/ha)?
Answer: 75

Question: What about the “Plant response rating (0 to 100 scale)” value ([3]; Postemergence, 250 g ai/ha) of the same molecule?
Answer: 85

Question: What about the “Plant response rating (0 to 100 scale)” value ([3]; Postemergence, 500 g ai/ha) of the same molecule?
Answer: 95

Question: And the “Plant response rating (0 to 100 scale)” value ([3]; Preemergence, 31 g ai/ha)?
Answer: 35

Question: And the “Plant response rating (0 to 100 scale)” value ([3]; Preemergence, 62 g ai/ha)?
Answer: 95

Question: What about the “Plant response rating (0 to 100 scale)” value ([3]; Preemergence, 125 g ai/ha) of the same molecule?
Answer: 100

Question: What about the “Plant response rating (0 to 100 scale)” value ([3]; Preemergence, 250 g ai/ha) of the same molecule?
Answer: 100

Question: And the “Plant response rating (0 to 100 scale)” value ([3]; Preemergence, 500 g ai/ha)?
Answer: 100

Question: What about the “Plant response rating (0 to 100 scale)” value ([4]; Postemergence, 31 g ai/ha) of the same molecule?
Answer: 0

Question: And the “Plant response rating (0 to 100 scale)” value ([4]; Postemergence, 62 g ai/ha)?
Answer: 10

Question: And the “Plant response rating (0 to 100 scale)” value ([4]; Postemergence, 125 g ai/ha)?
Answer: 10

Question: And the “Plant response rating (0 to 100 scale)” value ([4]; Postemergence, 250 g ai/ha)?
Answer: 15

Question: And the “Plant response rating (0 to 100 scale)” value ([4]; Postemergence, 500 g ai/ha)?
Answer: 15

Question: What about the “Plant response rating (0 to 100 scale)” value ([4]; Preemergence, 31 g ai/ha) of the same molecule?
Answer: 0

Question: And the “Plant response rating (0 to 100 scale)” value ([4]; Preemergence, 62 g ai/ha)?
Answer: 15

Question: And the “Plant response rating (0 to 100 scale)” value ([4]; Preemergence, 125 g ai/ha)?
Answer: 30

Question: What about the “Plant response rating (0 to 100 scale)” value ([4]; Preemergence, 250 g ai/ha) of the same molecule?
Answer: 25

Question: What about the “Plant response rating (0 to 100 scale)” value ([4]; Preemergence, 500 g ai/ha) of the same molecule?
Answer: 70

Question: And the “Plant response rating (0 to 100 scale)” value ([5]; Postemergence, 31 g ai/ha)?
Answer: 0

Question: What about the “Plant response rating (0 to 100 scale)” value ([5]; Postemergence, 62 g ai/ha) of the same molecule?
Answer: 0

Question: What about the “Plant response rating (0 to 100 scale)” value ([5]; Postemergence, 125 g ai/ha) of the same molecule?
Answer: 15

Question: And the “Plant response rating (0 to 100 scale)” value ([5]; Postemergence, 250 g ai/ha)?
Answer: 75

Question: And the “Plant response rating (0 to 100 scale)” value ([5]; Postemergence, 500 g ai/ha)?
Answer: 60

Question: What about the “Plant response rating (0 to 100 scale)” value ([5]; Preemergence, 31 g ai/ha) of the same molecule?
Answer: 10

Question: What about the “Plant response rating (0 to 100 scale)” value ([5]; Preemergence, 62 g ai/ha) of the same molecule?
Answer: 35

Question: And the “Plant response rating (0 to 100 scale)” value ([5]; Preemergence, 125 g ai/ha)?
Answer: 45

Question: And the “Plant response rating (0 to 100 scale)” value ([5]; Preemergence, 250 g ai/ha)?
Answer: 70

Question: What about the “Plant response rating (0 to 100 scale)” value ([5]; Preemergence, 500 g ai/ha) of the same molecule?
Answer: 95

Question: And the “Plant response rating (0 to 100 scale)” value ([6]; Postemergence, 31 g ai/ha)?
Answer: 20

Question: What about the “Plant response rating (0 to 100 scale)” value ([6]; Postemergence, 62 g ai/ha) of the same molecule?
Answer: 0

Question: And the “Plant response rating (0 to 100 scale)” value ([6]; Postemergence, 125 g ai/ha)?
Answer: 0

Question: And the “Plant response rating (0 to 100 scale)” value ([6]; Postemergence, 250 g ai/ha)?
Answer: 0

Question: And the “Plant response rating (0 to 100 scale)” value ([6]; Postemergence, 500 g ai/ha)?
Answer: 30

Question: What about the “Plant response rating (0 to 100 scale)” value ([6]; Preemergence, 31 g ai/ha) of the same molecule?
Answer: 0

Question: And the “Plant response rating (0 to 100 scale)” value ([6]; Preemergence, 62 g ai/ha)?
Answer: 30

Question: What about the “Plant response rating (0 to 100 scale)” value ([6]; Preemergence, 125 g ai/ha) of the same molecule?
Answer: 30

Question: And the “Plant response rating (0 to 100 scale)” value ([6]; Preemergence, 250 g ai/ha)?
Answer: 40

Question: What about the “Plant response rating (0 to 100 scale)” value ([6]; Preemergence, 500 g ai/ha) of the same molecule?
Answer: 80

Question: And the “Plant response rating (0 to 100 scale)” value ([7]; Postemergence, 31 g ai/ha)?
Answer: 35

Question: And the “Plant response rating (0 to 100 scale)” value ([7]; Postemergence, 125 g ai/ha)?
Answer: 45

Question: What about the “Plant response rating (0 to 100 scale)” value ([7]; Postemergence, 250 g ai/ha) of the same molecule?
Answer: 70

Question: What about the “Plant response rating (0 to 100 scale)” value ([7]; Postemergence, 500 g ai/ha) of the same molecule?
Answer: 95

Question: And the “Plant response rating (0 to 100 scale)” value ([7]; Preemergence, 31 g ai/ha)?
Answer: 20

Question: And the “Plant response rating (0 to 100 scale)” value ([7]; Preemergence, 62 g ai/ha)?
Answer: 65

Question: And the “Plant response rating (0 to 100 scale)” value ([7]; Preemergence, 125 g ai/ha)?
Answer: 45

Question: And the “Plant response rating (0 to 100 scale)” value ([7]; Preemergence, 250 g ai/ha)?
Answer: 70

Question: And the “Plant response rating (0 to 100 scale)” value ([7]; Preemergence, 500 g ai/ha)?
Answer: 70

Question: And the “Plant response rating (0 to 100 scale)” value ([8]; Postemergence, 31 g ai/ha)?
Answer: 0

Question: What about the “Plant response rating (0 to 100 scale)” value ([8]; Postemergence, 62 g ai/ha) of the same molecule?
Answer: 20

Question: What about the “Plant response rating (0 to 100 scale)” value ([8]; Postemergence, 125 g ai/ha) of the same molecule?
Answer: 40

Question: And the “Plant response rating (0 to 100 scale)” value ([8]; Postemergence, 250 g ai/ha)?
Answer: 50

Question: And the “Plant response rating (0 to 100 scale)” value ([8]; Postemergence, 500 g ai/ha)?
Answer: 70

Question: What about the “Plant response rating (0 to 100 scale)” value ([8]; Preemergence, 31 g ai/ha) of the same molecule?
Answer: 10

Question: And the “Plant response rating (0 to 100 scale)” value ([8]; Preemergence, 62 g ai/ha)?
Answer: 40

Question: And the “Plant response rating (0 to 100 scale)” value ([8]; Preemergence, 125 g ai/ha)?
Answer: 50

Question: What about the “Plant response rating (0 to 100 scale)” value ([8]; Preemergence, 250 g ai/ha) of the same molecule?
Answer: 80

Question: And the “Plant response rating (0 to 100 scale)” value ([8]; Preemergence, 500 g ai/ha)?
Answer: 90

Question: And the “Plant response rating (0 to 100 scale)” value ([9]; Postemergence, 31 g ai/ha)?
Answer: 0

Question: What about the “Plant response rating (0 to 100 scale)” value ([9]; Postemergence, 62 g ai/ha) of the same molecule?
Answer: 80

Question: And the “Plant response rating (0 to 100 scale)” value ([9]; Postemergence, 125 g ai/ha)?
Answer: 85

Question: And the “Plant response rating (0 to 100 scale)” value ([9]; Postemergence, 250 g ai/ha)?
Answer: 85

Question: What about the “Plant response rating (0 to 100 scale)” value ([9]; Postemergence, 500 g ai/ha) of the same molecule?
Answer: 100

Question: What about the “Plant response rating (0 to 100 scale)” value ([9]; Preemergence, 31 g ai/ha) of the same molecule?
Answer: 80

Question: And the “Plant response rating (0 to 100 scale)” value ([9]; Preemergence, 62 g ai/ha)?
Answer: 100

Question: What about the “Plant response rating (0 to 100 scale)” value ([9]; Preemergence, 125 g ai/ha) of the same molecule?
Answer: 100

Question: What about the “Plant response rating (0 to 100 scale)” value ([9]; Preemergence, 250 g ai/ha) of the same molecule?
Answer: 100

Question: What about the “Plant response rating (0 to 100 scale)” value ([9]; Preemergence, 500 g ai/ha) of the same molecule?
Answer: 100

From US8802597B2, “Herbicidal pyrimidines” (E I du Pont de Nemours and Company, priority 2003, dated 2014)
